For 24 compounds, Ki results are on record in US20190047966A1, “NOVEL COMPOUND AND PHARMACOLOGICALLY ACCEPTABLE SALT THEREOF” (MEIJI SEIKA PHARMA CO., LTD., priority 2016, published 2019).

Structures can show the parent of a compound that is named as a salt.

For assay [1], the target named is T1, human histamine H4 receptor (Homo sapiens, UniProt Q9H3N8).
T1 construct: purchased PerkinElmer Inc; host or cells: CHO-K1
Put plainly: Evaluation of Human H4 Receptor Affinity ([3H]histamine binding). Particulars: inhibition constant Ki, CHO-K1 membrane preparation, read-out: Evaluation of H4 Receptor Affinity. The procedure, abridged:
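Membranes from CHO-K1 cells expressing human H4 receptor incubated with 8.2 nM [3H]histamine and compound for 90 min at 25 °C in 50 mM Tris-HCl pH 7.4, 1.25 mM EDTA, then filtered and counted. Nonspecific binding defined with 1.0 μM histamine; Ki from IC50 by Cheng-Prusoff using Kd 5.7 nM.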

The target in assay [2] is human histamine H1 receptor (Homo sapiens, UniProt P35367). Put plainly: Evaluation of Human H1 Receptor Affinity ([3H]pyrilamine binding). More on the design: purchased PerkinElmer Inc; host or cells: CHO-K1. Conditions: inhibition constant Ki, CHO-K1 membrane preparation. The essentials: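 Ki values are Cheng-Prusoff conversions of IC50 (Kd 1.1 nM) from radioligand displacement of 1.2 nM [3H]pyrilamine, with 1.0 μM pyrilamine defining nonspecific binding.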
human histamine H1 receptor, sequence (P35367 whole entry): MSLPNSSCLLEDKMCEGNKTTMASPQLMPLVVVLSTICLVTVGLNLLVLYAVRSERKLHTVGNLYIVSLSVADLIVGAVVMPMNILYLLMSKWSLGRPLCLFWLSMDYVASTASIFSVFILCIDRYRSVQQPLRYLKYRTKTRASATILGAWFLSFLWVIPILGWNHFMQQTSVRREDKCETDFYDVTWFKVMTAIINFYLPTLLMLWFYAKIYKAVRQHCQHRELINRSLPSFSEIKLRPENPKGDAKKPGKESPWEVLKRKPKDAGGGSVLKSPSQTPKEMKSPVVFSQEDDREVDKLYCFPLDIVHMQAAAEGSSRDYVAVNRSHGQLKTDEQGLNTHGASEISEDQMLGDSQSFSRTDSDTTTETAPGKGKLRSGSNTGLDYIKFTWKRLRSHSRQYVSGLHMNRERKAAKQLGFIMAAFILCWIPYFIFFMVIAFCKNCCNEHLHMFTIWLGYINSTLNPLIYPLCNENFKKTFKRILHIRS

T1 sequence (Q9H3N8 whole entry): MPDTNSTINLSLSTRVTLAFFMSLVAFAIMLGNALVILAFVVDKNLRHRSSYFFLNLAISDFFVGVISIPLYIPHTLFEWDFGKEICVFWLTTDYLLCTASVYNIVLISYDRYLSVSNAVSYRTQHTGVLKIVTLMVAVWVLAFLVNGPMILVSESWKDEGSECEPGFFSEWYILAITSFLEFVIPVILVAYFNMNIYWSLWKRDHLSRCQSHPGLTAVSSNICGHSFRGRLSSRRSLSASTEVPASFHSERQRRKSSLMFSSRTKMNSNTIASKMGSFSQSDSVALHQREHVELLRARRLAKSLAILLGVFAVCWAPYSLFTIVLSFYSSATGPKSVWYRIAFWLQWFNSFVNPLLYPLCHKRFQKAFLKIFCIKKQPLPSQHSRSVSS

For `CC(C)(C(=O)O)[C@H]1C[C@H](OCCN2CCN(c3nc(N)nc4c3CCc3cc(OCc5ccc(Cl)cc5)ccc3-4)CC2)C1` [Example 173, trans-2-(3-(2-(4-(2-amino-8-((4-chlorobenzyl)oxy)-5,6-dihydrobenzo[h]quinazolin-4-yl)piperazin-1-yl)ethoxy)cyclobutyl)-2-methylpropanoic acid], the Ki in assay [1] and in assay [2] was under 100 nM throughout.
With `CC(C)(C(=O)O)[C@H]1C[C@H](OCCN2CCN(c3nc(N)nc4c3CCc3cc(OCc5ccc(OC(F)(F)F)cc5)ccc3-4)CC2)C1` [Example 174, trans-2-(3-(2-(4-(2-amino-8-((4-(trifluoromethoxy)benzyl)oxy)-5,6-dihydrobenzo[h]quinazolin-4-yl)piperazin-1-yl)ethoxy)cyclobutyl)-2-methylpropanoic acid], the Ki in assay [1] and in assay [2] was under 100 nM throughout.
Regarding `N#CC1(C(=O)O)CCC(COCCN2CCN(c3nc(N)nc4c3CCc3cc(OCc5ccc(OC(F)(F)F)cc5)ccc3-4)CC2)CC1` (stereo not drawn) [Example 175, 4-((2-(4-(2-amino-8-((4-(trifluoromethoxy)benzyl)oxy)-5,6-dihydrobenzo[h]quinazolin-4-yl)piperazin-1-yl)ethoxy)methyl)-1-cyanocyclohexane-1-carboxylic acid], the Ki in assay [1] and in assay [2] was under 100 nM each time.
Take `Nc1nc2c(c(N3CCN(CCOC4CCC(C(=O)O)OC4)CC3)n1)CCc1cc(OCc3ccc(OC(F)(F)F)cc3)ccc1-2` (stereo not drawn) [Example 179, 5-(2-(4-(2-amino-8-((4-(trifluoromethoxy)benzyl)oxy)-5,6-dihydrobenzo[h]quinazolin-4-yl)piperazin-1-yl)ethoxy)tetrahydro-2H-pyran-2-carboxylic acid]: the Ki in assay [1] and in assay [2] was under 100 nM in each case.
Regarding `Nc1nc2c(c(N3CCN(CCO[C@H]4C[C@@H]5[C@H](C4)[C@@]5(F)C(=O)O)CC3)n1)CCc1cc(OCc3ccc(OC(F)(F)F)cc3)ccc1-2` [Example 180, (1R,3r,5S,6s)-3-(2-(4-(2-amino-8-((4-(trifluoromethoxy)benzyl)oxy)-5,6-dihydrobenzo[h]quinazolin-4-yl)piperazin-1-yl)ethoxy)-6-fluorobicyclo[3.1.0]hexane-6-carboxylic acid], the Ki in assay [1] and in assay [2] was under 100 nM each time.
Turning to `Nc1nc2c(c(N3CCN(CCO[C@H]4CC[C@H]5[C@H](C(=O)O)[C@H]54)CC3)n1)CCc1cc(OCc3ccc(OC(F)(F)F)cc3)ccc1-2` [Example 181, (1S,25,5R,65)-2-(2-(4-(2-amino-8-((4-(trifluoromethoxy)benzyl)oxy)-5,6-dihydrobenzo[h]quinazolin-4-yl)piperazin-1-yl)ethoxy)bicyclo[3.1.0]hexane-6-carboxylic acid], the Ki in assay [1] is 100 to 500 nM; in assay [2] it was under 100 nM.
`Nc1nc2c(c(N3CCN(CCOCc4ccc(C(=O)O)s4)CC3)n1)CCc1cc(OCc3ccc(OC(F)(F)F)cc3)ccc1-2` [Example 182, 5-((2-(4-(2-amino-8-((4-(trifluoromethoxy)benzyl)oxy)-5,6-dihydrobenzo[h]quinazolin-4-yl)piperazin-1-yl)ethoxy)methyl)thiophene-2-carboxylic acid]: the Ki in assay [1] was 100 to 500 nM; in assay [2] it was under 100 nM.
Regarding `Nc1nc2c(c(N3CCN(CCOc4csc(C(=O)O)c4)CC3)n1)CCc1cc(OCc3ccc(OC(F)(F)F)cc3)ccc1-2` [Example 183, 4-(2-(4-(2-amino-8-((4-(trifluoromethoxy)benzyl)oxy)-5,6-dihydrobenzo[h]quinazolin-4-yl)piperazin-1-yl)ethoxy)thiophene-2-carboxylic acid], the Ki in assay [1] and in assay [2] was under 100 nM throughout.
For `Nc1nc2c(c(N3CCN(CCOCC4CCCC(C(=O)O)C4)CC3)n1)CCc1cc(OCc3ccc(OC(F)(F)F)cc3)ccc1-2` (stereo not drawn) [Example 185, trans-3-((2-(4-(2-amino-8-((4-(trifluoromethoxy)benzyl)oxy)-5,6-dihydrobenzo[h]quinazolin-4-yl)piperazin-l-yl)ethoxy)methyl)cyclohexane-1-carboxylic acid dihydrochloride], the Ki in assay [1] and in assay [2] was under 100 nM each time.
With `CS(=O)(=O)NC(=O)COCCOCCN1CCN(c2nc(N)nc3c2CCc2cc(OCc4ccc(Cl)cc4)ccc2-3)CC1` [Example 187, 2-(2-(2-(4-(2-amino-8-((4-chlorobenzyl)oxy)-5,6-dihydrobenzo[h]quinazolin-4-yl)piperazin-1-yl)ethoxy)ethoxy)-N-(methylsulfonyl)acetamide], the Ki in assay [1] was 100 to 500 nM; in assay [2] it was under 100 nM.
In the case of `CNC(=O)COCCOCCN1CCN(c2nc(N)nc3c2CCc2cc(OCc4ccc(Cl)cc4)ccc2-3)CC1` [Example 188, 2-(2-(2-(4-(2-amino-8-((4-chlorobenzyl)oxy)-5,6-dihydrobenzo[h]quinazolin-4-yl)piperazin-1-yl)ethoxy)ethoxy)-N-methylacetamide dihydrochloride], the Ki in assay [1] and in assay [2] was under 100 nM in each case.
In the case of `Nc1nc2c(c(N3CCN(CCO[C@H]4C[C@@H](C(=O)NO)C4)CC3)n1)CCc1cc(OCc3ccc(OC(F)(F)F)cc3)ccc1-2` [Example 189, cis 3-(2-(4-(2-amino-8-((4-(trifluoromethoxy)benzyl)oxy)-5,6-dihydrobenzo[h]quinazolin-4-yl)piperazin-1-yl)ethoxy)-N-hydroxycyclobutane-l-carboxamide], the Ki in assay [1] and in assay [2] was under 100 nM in each case.
Regarding `Nc1nc2c(c(N3CCN(CCOCC4CN(C5=NS(=O)(=O)N=C5O)C4)CC3)n1)CCc1cc(OCc3ccc(OC(F)(F)F)cc3)ccc1-2` [Example 190(b), 3-(3-((2-(4-(2-amino-8-((4-(trifluoromethoxy)benzyl)oxy)-5,6-dihydrobenzo[h]quinazolin-4-yl)piperazin-1-yl)ethoxy)methyl)azetidin-1-yl)-4-hydroxy-1,2,5-thiadiazole 1,1-dioxide], the Ki in assay [1] and in assay [2] was under 100 nM throughout.
On to `CN1CCN(c2nc(N)nc3c2CCc2cc(NS(=O)(=O)c4ccc(OCC(F)(F)F)cc4)ccc2-3)CC1` [Example 191, N-(2-amino-4-(4-methylpiperazin-1-yl)-5,6-dihydrobenzo[h]quinazolin-8-yl)-4-(2,2,2-trifluoroethoxy)benzenesulfonamide], for which the Ki in assay [1] and in assay [2] was under 100 nM in each case.
Turning to `Nc1nc2c(c(N3CCNCC3)n1)CCc1cc(NS(=O)(=O)c3ccc(OC(F)(F)F)cc3)ccc1-2` [Example 192, N-(2-amino-4-(4-piperazin-1-yl)-5,6-dihydrobenzo[h]quinazolin-8-yl)-4-(trifluoromethoxy)benezenesulfonamide hydrochloride], the Ki in assay [1] and in assay [2] was under 100 nM in each case.
On to `CN1CCCN(c2nc(N)nc3c2CCc2cc(NS(=O)(=O)c4ccc(OC(F)(F)F)cc4)ccc2-3)CC1` [Example 193, N-(2-amino-4-(4-methyl-1,4-diazepan-1-yl)-5,6-dihydrobenzo[h]quinazolin-8-yl)-4-(trifluoromethoxy)benzenesulfonamide bis(trifluoroacetate)], for which the Ki in assay [1] and in assay [2] was under 100 nM each time.
For `CN1CCN(c2nc(N)nc3c2CCc2cc(NS(=O)(=O)N4CCC(F)(F)CC4)ccc2-3)CC1` [Example 194, N-(2-amino-4-(4-methylpiperazin-1-yl)-5,6-dihydrobenzo[h]quinazolin-8-yl)-4,4-difluoropiperidine-1-sulfonamide], the Ki in assay [1] and in assay [2] was 100 to 500 nM throughout.
Consider `CN1CCN(c2nc(N)nc3c2CCc2cc(NC(=O)Nc4ccc(Cl)cc4)ccc2-3)CC1` [Example 195, 1-(2-amino-4-(4-methylpiperazin-1-yl)-5,6-dihydrobenzo[h]quinazolin-8-yl)-3-(4-chlorophenyl)urea], for which the Ki in assay [1] was under 100 nM; in assay [2], 100 to 500 nM.
For `CN1CCN(c2nc(N)nc3c2CCc2cc(OCc4ccc(Br)cc4)ccc2-3)CC1` [Example 197, 8-((4-bromobenzyl)oxy)-4-(4-methylpiperazin-1-yl)-5,6-dihydrobenzo[h]quinazolin-2-amine], in that order: under 100 nM and under 100 nM.
For the compound `CN1CCN(c2nc(N)nc3c2CCc2cc(OCc4ccc(OC(F)(F)F)cc4)ccc2-3)CC1` [Example 198, 4-(4-methylpiperazin-1-yl)-8-((4-(trifluoromethoxy)benzyl)oxy)-5,6-dihydrobenzo[h]quinazolin-2-amine], the Ki in assay [1] and in assay [2] was under 100 nM each time.
For the compound `CN1CCN(c2nc(N)nc3c2CCc2cc(OCC4CCOCC4)ccc2-3)CC1` [Example 199, 4-(4-methylpiperazin-1-yl)-8-((tetrahydro-2H-pyran-4-yl)methoxy)-5,6-dihydrobenzo[h]quinazolin-2-amine], the Ki in assay [1] and in assay [2] was 100 to 500 nM in each case.
On to `CN1CCN(c2nc(N)nc3c2CCc2ccc(OCc4ccccc4)cc2-3)CC1` [Example 200, 9-(benzyloxy)-4-(4-methylpiperazin-1-yl)-5,6-dihydrobenzo[h]quinazolin-2-amine], for which the Ki in assay [1] and in assay [2] was under 100 nM in each case.
As for `CN1CCN(c2nc(N)nc3c2CCCc2ccc(OCc4ccccc4)cc2-3)CC1` [Example 202, 10-(benzyloxy)-4-(4-methylpiperazin-1-yl)-6,7-dihydro-5H-benzo[6,7]cyclohepta[1,2-d]pyrimidin-2-amine], the Ki in assay [1] was under 100 nM; in assay [2], 100 to 500 nM.
Regarding `CN1CCN(c2nc(N)nc3c2oc2ccc(OCc4ccccc4)cc23)CC1` [Example 203, 8-(benzyloxy)-4-(4-methylpiperazin-1-yl)benzofuro[3,2-d]pyrimidin-2-amine], the Ki in assay [1] and in assay [2] was under 100 nM throughout.
